{"source": "paper PMC3779320", "about": "“Bub3 reads phosphorylated MELT repeats to promote spindle assembly checkpoint signaling” (eLife, 2013)", "key": {"[1]": {"molecular_target": "T1, Bub1^289–359–Bub3^R239A (Saccharomyces cerevisiae, UniProt P26449+P41695, R239A)", "T1 construct": "S. cerevisiae Bub1^289–359 and for full length Bub3; ITC experiments with the MELT2^P peptide and Bub1^289–359–Bub3^R239A; GST (N, cleaved yes); made in house; host or cells: E. coli BL21 DE3 plysS", "T1 sequence (P26449 1-341 R239A)": "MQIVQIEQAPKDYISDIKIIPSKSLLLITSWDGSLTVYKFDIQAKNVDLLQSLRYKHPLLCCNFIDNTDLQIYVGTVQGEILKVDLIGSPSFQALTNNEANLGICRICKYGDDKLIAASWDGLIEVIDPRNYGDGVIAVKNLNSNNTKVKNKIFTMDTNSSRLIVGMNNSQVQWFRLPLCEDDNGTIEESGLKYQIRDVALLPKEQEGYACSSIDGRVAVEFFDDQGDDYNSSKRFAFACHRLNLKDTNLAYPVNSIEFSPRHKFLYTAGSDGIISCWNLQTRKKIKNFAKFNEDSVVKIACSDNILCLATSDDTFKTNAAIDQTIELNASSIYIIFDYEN", "T1 sequence (P41695 289-359)": "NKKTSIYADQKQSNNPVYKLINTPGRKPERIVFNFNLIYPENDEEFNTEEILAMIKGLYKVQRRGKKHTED", "assay": "ITC binding to Bub1^289–359–Bub3^R239A", "conditions": "Bub3 R239A compared with wild type (13- to 25-fold for R217A or R239A)", "description": "Because the presence of a phosphate on Thr172^Spc105/Knl1 is essential for high-affinity binding of ScBub1^289–359–Bub3 to MELT^P peptides (Figure 1), we concentrated our mutational analysis on two residues that are directly implicated in the recognition of the peptide’s phospho-threonine, Arg217^Bub3 and Arg239^Bub3. Positively charged residues are invariant at these positions of the Bub3 alignment (Figure 2C). We generated single or double alanine mutants of Arg217^Bub3 and Arg239^Bub3 in the context of ScBub1^289–359–Bub3 and tested their binding affinity for the MELT2^P peptide by ITC.\ncDNA sequences coding for S. cerevisiae Bub1^289–359 and for full length Bub3 were subcloned in the first and second cassettes of pGEX-6P-2rbs vector ([Ciferri et al., 2005]). In this construct, the cDNA encoding Bub1^289–359 was sub-cloned in frame with the gene encoding GST and a cleavage site for PreScission protease, and was translated from the first ribosome-binding site (rbs). Untagged Bub3 was subcloned downstream of the second rbs in the same vector. Expression was carried out in BL21 DE3 plysS cells in LB medium by auto-induction with 0.3% lactose at 18°C for approximately 16 hr. […]\nBinding isotherm was measured at 25°C by isothermal titration calorimetry on a MicroCal ITC200 device (GE Healthcare, Piscataway, NJ). […]"}, "[2]": {"molecular_target": "T2, Bub1^289–359–R314A–Bub3 (Saccharomyces cerevisiae, UniProt P26449+P41695, R314A)", "T2 construct": "S. cerevisiae Bub1^289–359 and for full length Bub3; ITC experiment with the MELT2^P peptide and the Bub1^289–359–R314A–Bub3 complex; GST (N, cleaved yes); made in house; host or cells: E. coli BL21 DE3 plysS", "T2 sequence (P26449 whole entry)": "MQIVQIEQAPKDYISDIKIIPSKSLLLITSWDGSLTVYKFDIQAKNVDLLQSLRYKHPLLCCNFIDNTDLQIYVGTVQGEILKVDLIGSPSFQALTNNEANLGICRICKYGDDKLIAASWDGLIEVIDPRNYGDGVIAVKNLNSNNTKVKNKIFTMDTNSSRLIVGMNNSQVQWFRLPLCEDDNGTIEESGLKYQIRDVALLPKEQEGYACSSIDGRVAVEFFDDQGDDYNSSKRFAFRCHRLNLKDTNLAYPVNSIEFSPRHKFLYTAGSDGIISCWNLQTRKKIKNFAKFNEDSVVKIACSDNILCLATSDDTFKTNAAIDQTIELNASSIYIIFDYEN", "T2 sequence (P41695 289-359 R314A)": "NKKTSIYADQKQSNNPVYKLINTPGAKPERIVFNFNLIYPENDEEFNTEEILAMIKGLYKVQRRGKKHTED", "assay_type": "binding", "conditions": "ITC; Bub3-Bub1^R314A mutant compared to wild type Bub3–Bub1; MELT4^P: data not shown", "description": "Such function of Bub1 is probably exerted primarily through its structuring effects on the 4-stranded β-sheet ‘roof’ that dominates the peptide-binding region of Bub3 and which restrains the position of the positively charged residues in the ‘north’ area of the MELT^P-binding site (Figure 4E). Additionally, we observe that Arg314^Bub1, in the β1-β2 loop, contributes to the interaction with the phosphate group of P-Thr172^Spc105/Knl1 (the interaction, however, is only observed in one of the two complexes in the asymmetric unit, and in proximity of a crystal contact) and is therefore directly engaged in the interaction with the MELT2^P peptide. In ITC measurements, we observed a ∼fourfold reduction in the binding affinity of the Bub3-Bub1^R314A mutant for the MELT2^P peptide, in agreement with a role of Arg314^Bub1 is in the interaction of the Bub1-Bub3 complex with MELT2^P (Figure 4F). Similarly, Bub3–Bub1^R314A bound the MELT4^P with ∼threefold decreased affinity compared to wild type Bub3–Bub1 (data not shown).\nBinding isotherm was measured at 25°C by isothermal titration calorimetry on a MicroCal ITC200 device (GE Healthcare, Piscataway, NJ). All samples were extensively dialysed into fresh GF buffer (20 mM Tris pH7.5, 150 mM NaCl, 1 mM DTE). […]"}}, "note": "Square brackets hold non-standard residues; d marks the D form. Peptide text beside a SMILES is read from it. pT = C[C@@H](OP(=O)(O)O)[C@H](N)C(=O)O", "data": [{"smiles": "CC[C@H](C)[C@H](NC(=O)[C@H](CO)NC(=O)[C@H](CCCNC(=N)N)NC(=O)[C@@H]1CCCN1C(=O)[C@H](Cc1ccccc1)NC(=O)[C@@H](NC(=O)[C@H](CCC(=O)O)NC(=O)[C@@H](NC(=O)[C@H](CCSC)NC(=O)[C@H](CCC(=O)O)NC(=O)[C@H](CCSC)NC(=O)[C@H](CO)NC(=O)[C@@H](NC(=O)[C@@H]1CCCN1C(=O)[C@H](CC(=O)O)NC(C)=O)[C@@H](C)O)[C@@H](C)OP(=O)(O)O)C(C)C)C(=O)N[C@@H](CCCNC(=N)N)C(=O)N[C@@H](CCC(N)=O)C(=O)N[C@@H](CCCCN)C(=O)N[C@@H](CC(N)=O)C(N)=O", "note": "[MELT2^P] (Ac-DPTSMEM[pT]EVFPRSIRQKN-NH2; N-terminus and C-terminus assumed)", "values": [{"measurement": "fold reduction in binding affinity", "setting": "[1]", "value": 25, "unit": "fold"}, {"measurement": "fold reduction in binding affinity", "setting": "[2]", "value": "fourfold"}]}]}
